The source of these data is PMC10095708, “Discovery of Novel STING Inhibitors Based on the Structure of the Mouse STING Agonist DMXAA” (Molecules, 2023).

Broadly, the IC50 is the concentration needed to halve the response being measured. The term EC50 denotes the concentration giving half of the maximal effect.

Experiment [1] deals with hSTING. Further details: method as in PMID 31927317. Conditions: STING competition binding kits; cited from earlier work.
Experiment [2] concerns the target hSTING-R232 (Homo sapiens, UniProt Q86WV6, H232R). Kind of experiment: Cellular assay for STING inhibitory activity, 293T hSTING-R232 cells stimulated with 2′,3′-cGAMP (SEAP). The following applies: compound at 100 μM.
The target in experiment [3] is T1, hSTING-H232 (Homo sapiens, UniProt Q86WV6).
T1 construct: purchased Cisbio
The experiment is described as follows: HTRF STING competition binding (cGAMP displacement) assay, hSTING-H232. The following applies: for IC50: HTRF displacement assay, means from at least three repeated experiments; for binding to hSTING-H232 in displacement assay, in words: concentrations up to 100 μM. On the procedure:
(§1) Mouse STING binding kits, human STING WT binding kits, human AQ STING binding kits, human H232 STING binding kits were purchased from Cisbio. […] QUANTI-Blue solution, QUANTI-Luc, 2′,3′-cGAMP were purchased from Invivogen. […] CellTiter-Glo luminescent cell viability assay kit was obtained from Promega.
(§2) According to the instructions of STING binding kits, the following solutions were successively added to each well in the 384-well plate: 5 μL of the detection compounds or 2′,3′-cGAMP (positive control) with different concentrations or diluent (negative control); 5 μL of human STING 6His-tagged protein (negative control well was added to detection buffer); 10 μL of STING ligand d2 and Anti 6His-Tb3^+ premixed working solution.
For orientation: In TR-FRET formats the signal depends on donor and acceptor labels being close together.

Experiment [4] deals with T2, mSTING (Mus musculus, UniProt Q3TBT3).
T2 sequence (Q3TBT3 1-378): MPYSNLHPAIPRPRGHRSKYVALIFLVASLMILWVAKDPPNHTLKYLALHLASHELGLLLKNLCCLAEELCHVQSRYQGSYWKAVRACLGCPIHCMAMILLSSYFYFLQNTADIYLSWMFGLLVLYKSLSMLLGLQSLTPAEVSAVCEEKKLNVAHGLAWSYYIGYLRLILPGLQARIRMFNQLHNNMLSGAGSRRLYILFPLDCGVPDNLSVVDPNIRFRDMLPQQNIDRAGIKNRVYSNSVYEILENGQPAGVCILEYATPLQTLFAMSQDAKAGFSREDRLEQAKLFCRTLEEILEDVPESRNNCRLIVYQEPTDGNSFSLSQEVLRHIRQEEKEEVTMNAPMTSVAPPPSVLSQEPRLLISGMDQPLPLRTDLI
Further details: purchased Cisbio; method as in PMID 31927317. The following applies: STING reporter cells, agonist activity; cited from earlier work.

Experiment [5] concerns hSTING. On the set-up: method as in PMID 31927317. Conditions: STING reporter cells, agonist activity; cited from earlier work.
Experiment [6] addresses T3, hSTING-AQ (Homo sapiens, UniProt Q86WV6, G230A/R293Q).
T3 construct: purchased Cisbio
Kind of experiment: HTRF STING competition binding (cGAMP displacement) assay, hSTING-AQ. Conditions: for IC50: HTRF displacement assay, means from at least three repeated experiments; for binding to hSTING-AQ in displacement assay, in words: concentrations up to 100 μM. On the procedure: as §1, §2

Experiment [7] deals with T2, mSTING. Kind of experiment: Cellular assay for STING inhibitory activity, 293T mSTING cells stimulated with 2′,3′-cGAMP (SEAP). The following applies: compound at 100 μM.
Experiment [8] deals with T4, hSTING-WT (Homo sapiens, UniProt Q86WV6, H232R).
T4 construct: purchased Cisbio
Kind of experiment: HTRF STING competition binding (cGAMP displacement) assay, hSTING-WT. The following applies: for IC50: HTRF displacement assay, means from at least three repeated experiments; for binding to hSTING-WT in displacement assay, in words: concentrations up to 100 μM. On the procedure: as §1, §2

Experiment [9] addresses T2, mSTING. The experiment is described as follows: HTRF STING competition binding (cGAMP displacement) assay, mSTING. Further details: purchased Cisbio. The following applies: HTRF displacement assay, means from at least three repeated experiments. On the procedure:
as §1, §2

T3 sequence (Q86WV6 whole entry G230A/R293Q): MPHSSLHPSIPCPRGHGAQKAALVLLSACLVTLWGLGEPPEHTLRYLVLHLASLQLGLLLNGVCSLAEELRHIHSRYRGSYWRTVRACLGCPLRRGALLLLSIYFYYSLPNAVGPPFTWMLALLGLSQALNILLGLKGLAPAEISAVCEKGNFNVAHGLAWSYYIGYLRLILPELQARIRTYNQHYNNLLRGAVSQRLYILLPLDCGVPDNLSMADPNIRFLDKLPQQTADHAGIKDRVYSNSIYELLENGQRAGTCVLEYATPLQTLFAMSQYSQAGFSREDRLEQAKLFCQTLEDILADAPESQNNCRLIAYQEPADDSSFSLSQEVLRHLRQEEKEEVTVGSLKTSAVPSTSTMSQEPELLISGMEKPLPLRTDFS
T1 sequence (Q86WV6 135-379 limits assumed): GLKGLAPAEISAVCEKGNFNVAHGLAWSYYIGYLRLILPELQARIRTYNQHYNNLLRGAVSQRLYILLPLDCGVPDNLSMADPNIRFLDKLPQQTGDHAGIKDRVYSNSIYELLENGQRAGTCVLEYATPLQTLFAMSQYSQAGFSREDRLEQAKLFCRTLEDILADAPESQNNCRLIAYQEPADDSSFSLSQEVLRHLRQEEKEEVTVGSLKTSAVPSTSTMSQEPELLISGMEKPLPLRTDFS
T4 sequence (Q86WV6 whole entry H232R): as the sequence (Q86WV6 whole entry G230A/R293Q) above, with A230G, H232R, Q293R counted along it
Chain of hSTING-R232 (Q86WV6 whole entry H232R): as the sequence (Q86WV6 whole entry G230A/R293Q) above, with A230G, H232R, Q293R counted along it

As to `COc1cc2c(=O)c3cccc4c3n(c2c(C)c1C)C(=O)C4` [Compound 3], the IC50 was 10.3 µM in [1]; 36 µM in experiment [3]; 58.2 µM in [6]; 18.3 µM in [8]; 33.3 µM in experiment [9]. Besides, the “inhibitory potency in human STING reporter cells, initial screen” value in experiment [2] is “not being as effective”. The “binding to hSTING-H232 in displacement assay, in words” value in experiment [3] is on record as “IC50 values at the micromolar level”. Further, the EC50 is 66.5 ± 10.5 µM in experiment [4] and 154 ± 9.6 µM in experiment [5]. In addition, the “binding to hSTING-AQ in displacement assay, in words” value in experiment [6] is given as “IC50 values at the micromolar level”. Also, the “inhibitory potency in murine STING reporter cells, initial screen” value in experiment [7] was “not being as effective”. Moreover, in experiment [8], the “binding to hSTING-WT in displacement assay, in words” value is reported as “IC50 values at the micromolar level”.

With `COc1cc2c(=O)c3cccc(CC(=O)O)c3[nH]c2c(C)c1C` [Compound 4], the IC50 is 13.1 µM in experiment [1]; 43.8 µM in [3]; 47.6 µM in experiment [6]; 21.1 µM in experiment [8]; 28.2 µM in experiment [9]. In addition, the “inhibitory potency in human STING reporter cells, initial screen” value in experiment [2] is reported as “not being as effective”. For the same compound, the “binding to hSTING-H232 in displacement assay, in words” value in [3] was “IC50 values at the micromolar level”. Moreover, the results for the EC50 in experiment [4] and in experiment [5] were 72.3 ± 11.1 µM and 135 ± 12.1 µM, respectively. Further, the “binding to hSTING-AQ in displacement assay, in words” value in experiment [6] is “IC50 values at the micromolar level”. Besides, the “inhibitory potency in murine STING reporter cells, initial screen” value in experiment [7] is given as “not being as effective”. The “binding to hSTING-WT in displacement assay, in words” value in experiment [8] is recorded as “IC50 values at the micromolar level”.
